Measurements: paper PMC12040169 (PLOS Biology, 2025)

assay: in vitro; details: human, hela cells, % viability

Question: For CCn1cc(CCC(=O)NC2CCCOC2)c2ccccc21 (stereo not shown) [CBK283256], which viability at 28.5 h, 10 µM is on record?
Answer: Its viability at 28.5 h, 10 µM is 88.7%.

Question: For CCn1c(C)cc2cc(NC(=O)c3cnc(C)nc3C)ccc21 [CBK283260], which viability at 28.5 h, 10 µM is on record?
Answer: The viability at 28.5 h, 10 µM was 104%.

Question: For COc1ccccc1CC(C)NC(=O)c1ccc2nc(C)[nH]c2c1 (stereo not shown) [CBK283261], which viability at 28.5 h, 10 µM is on record?
Answer: Its viability at 28.5 h, 10 µM is 86.1%.

Question: Which viability at 28.5 h, 10 µM does the source give for Cc1c(CN(Cc2ccccc2)CC2CCCO2)cnn1C (stereo not shown) [CBK283263] here?
Answer: Its viability at 28.5 h, 10 µM is 94.3%.

Question: With Cc1nn(C)cc1CN(Cc1ccccc1)CC1CCCO1 (stereo not shown) [CBK283264] as the molecule, how does the viability at 28.5 h, 10 µM read?
Answer: The viability at 28.5 h, 10 µM was 94.4%.

Question: With CCn1cc(CN(Cc2ccccc2)CC2CCCO2)c(C)n1 (stereo not shown) [CBK283265] as the molecule, how does the viability at 28.5 h, 10 µM read?
Answer: The viability at 28.5 h, 10 µM was 93.7%.

Question: With CCc1nc2ccc(NC(=O)CCCc3ccncc3)cc2[nH]1 [CBK283268] as the molecule, how does the viability at 28.5 h, 10 µM read?
Answer: Its viability at 28.5 h, 10 µM is 111%.

Question: For Cc1c(C(=O)N(C)CCc2ccncc2)[nH]c2ccccc12 [CBK283271], which viability at 28.5 h, 10 µM is on record?
Answer: Its viability at 28.5 h, 10 µM is 104%.

Question: Which viability at 28.5 h, 10 µM does the source give for Cc1ncc(C(=O)NC2(c3cccc(F)c3)CCCC2)c(C)n1 [CBK283273] here?
Answer: The viability at 28.5 h, 10 µM was 89.4%.

Question: Which viability at 28.5 h, 10 µM does the source give for O=C(NCCN1CCC(O)(c2cccc(F)c2)CC1)C1CCCCC1 [CBK283281] here?
Answer: The viability at 28.5 h, 10 µM was 96.2%.

Question: Which viability at 28.5 h, 10 µM does the source give for COc1cccc2c1cc(C(=O)NCc1cc(C3CC3)[nH]n1)n2C [CBK283282] here?
Answer: Its viability at 28.5 h, 10 µM is 80.4%.

Question: For COc1cccc2c1cc(C(=O)NCCCC1CCOC1)n2C (stereo not shown) [CBK283284], which viability at 28.5 h, 10 µM is on record?
Answer: Its viability at 28.5 h, 10 µM is 93.4%.

Question: Which viability at 28.5 h, 10 µM does the source give for O=C(NCCN1CCC(O)(c2cccc(F)c2)CC1)C1CCCC1 [CBK283285] here?
Answer: The viability at 28.5 h, 10 µM was 110%.

Question: For C=CCNC(=O)CCn1c(C(C)C)cc2cccnc21 [CBK283289], which viability at 28.5 h, 10 µM is on record?
Answer: The viability at 28.5 h, 10 µM was 105%.

Question: For C=Cn1ncc(CN(Cc2ccc(C)o2)CC2CCCO2)c1C (stereo not shown) [CBK283292], which viability at 28.5 h, 10 µM is on record?
Answer: The viability at 28.5 h, 10 µM was 101%.

Question: For O=C(NCCCc1ccccn1)c1cc(C2CCCCC2)no1 [CBK283296], which viability at 28.5 h, 10 µM is on record?
Answer: Its viability at 28.5 h, 10 µM is 89.4%.

Question: With Cc1nc2ccc(C(=O)NCCCN3CC(C)CC(C)C3)cc2[nH]1 (stereo not shown) [CBK283298] as the molecule, how does the viability at 28.5 h, 10 µM read?
Answer: Its viability at 28.5 h, 10 µM is 85.4%.

Question: For C=Cn1ncc(CN2CCC3(O)CCCCC3C2)c1C (stereo not shown) [CBK283302], which viability at 28.5 h, 10 µM is on record?
Answer: The viability at 28.5 h, 10 µM was 94.5%.

Question: For CC(c1ccco1)N(C)Cc1c[nH]nc1-c1ccc(O)cc1 (stereo not shown) [CBK283303], which viability at 28.5 h, 10 µM is on record?
Answer: Its viability at 28.5 h, 10 µM is 89%.

Question: Which viability at 28.5 h, 10 µM does the source give for C[S+]([O-])CCNC(=O)c1cc2c(Cl)cccc2[nH]1 (stereo not shown) [CBK283304] here?
Answer: Its viability at 28.5 h, 10 µM is 83.9%.

Question: Which viability at 28.5 h, 10 µM does the source give for Cc1cc(C(=O)NCC[S+](C)[O-])c(-n2cccc2)s1 (stereo not shown) [CBK283305] here?
Answer: The viability at 28.5 h, 10 µM was 96.7%.

Question: Which viability at 28.5 h, 10 µM does the source give for CCn1cncc1CN1CCN(CC2(c3ccc(C)cc3)CC2)CC1 [CBK283307] here?
Answer: Its viability at 28.5 h, 10 µM is 105%.

Question: Which viability at 28.5 h, 10 µM does the source give for CC(Cc1ccccn1)N(C)C(=O)c1cnn(-c2ccc(F)cc2)c1 (stereo not shown) [CBK283316] here?
Answer: Its viability at 28.5 h, 10 µM is 99.6%.

Question: Which viability at 28.5 h, 10 µM does the source give for OC1CCN(Cc2c(-c3cccs3)[nH]c3ncccc23)CC1 [CBK283318] here?
Answer: Its viability at 28.5 h, 10 µM is 79.9%.

Question: Which viability at 28.5 h, 10 µM does the source give for O[C@@H]1CN(Cc2ccc(F)c(F)c2)CC[C@H]1NC1CC1 [CBK283319] here?
Answer: The viability at 28.5 h, 10 µM was 94%.

Question: With Cc1ccc(C2(O)CCN(CCNC(=O)C3CCCCC3)CC2)cc1 [CBK283323] as the molecule, how does the viability at 28.5 h, 10 µM read?
Answer: The viability at 28.5 h, 10 µM was 97.4%.

Question: For CN(Cc1cccn1C)C(=O)c1cc(-c2cnn(C)c2)[nH]n1 [CBK283325], which viability at 28.5 h, 10 µM is on record?
Answer: Its viability at 28.5 h, 10 µM is 103%.

Question: With C=CCn1c2cc(C)oc2c2cnn(CC(=O)N(C)C)c(=O)c21 [CBK283326] as the molecule, how does the viability at 28.5 h, 10 µM read?
Answer: The viability at 28.5 h, 10 µM was 101%.

Question: With OCc1c(-c2ccc(F)cc2)[nH]c2ncccc12 [CBK283328] as the molecule, how does the viability at 28.5 h, 10 µM read?
Answer: The viability at 28.5 h, 10 µM was 86.5%.

Question: With Cc1csc2c(C3CCCN(C(=O)c4cccnc4)C3)nc(C)n12 (stereo not shown) [CBK283329] as the molecule, how does the viability at 28.5 h, 10 µM read?
Answer: The viability at 28.5 h, 10 µM was 93.4%.

Question: With Cn1c(=O)n(CC(=O)NC2(C)C3CCC(C3)C2(C)C)c2cccnc21 (stereo not shown) [CBK283330] as the molecule, how does the viability at 28.5 h, 10 µM read?
Answer: The viability at 28.5 h, 10 µM was 84.9%.

Question: With O=C1Nc2c(cnn2-c2ccccc2Cl)C2=NCCCN12 [CBK283331] as the molecule, how does the viability at 28.5 h, 10 µM read?
Answer: The viability at 28.5 h, 10 µM was 100%.

Question: For O=C1NC2(CCc3ccccc31)CCN(C(=O)c1cccnc1)C2 (stereo not shown) [CBK283335], which viability at 28.5 h, 10 µM is on record?
Answer: The viability at 28.5 h, 10 µM was 96.5%.

Question: For COc1ccc(CN2CCC3(CCc4ccccc4C(=O)N3)C2)cc1 (stereo not shown) [CBK283339], which viability at 28.5 h, 10 µM is on record?
Answer: The viability at 28.5 h, 10 µM was 97.6%.

Question: With O=C(C1CCCC1)N1CC(n2nc(-c3cccs3)ccc2=O)C1 [CBK283345] as the molecule, how does the viability at 28.5 h, 10 µM read?
Answer: The viability at 28.5 h, 10 µM was 86.8%.

Question: Which viability at 28.5 h, 10 µM does the source give for O=C(c1cccs1)N1CC(n2nc(-c3cccs3)ccc2=O)C1 [CBK283347] here?
Answer: Its viability at 28.5 h, 10 µM is 97.3%.

Question: With O=C1CCC[C@]2(CN(Cc3ccccc3)C[C@H]2c2ccncc2)N1 [CBK283348] as the molecule, how does the viability at 28.5 h, 10 µM read?
Answer: Its viability at 28.5 h, 10 µM is 84.5%.
